Measured values reported in patent publication US20020026053A1, “Novel 3-(substituted) -2- indolinones compounds and use thereof as inhibitors of protein kinase activity” (priority 1997, published 2002).

Target: T1, EGFR (Homo sapiens, UniProt P00533)
T1 construct: endogenous in cells; host or cells: A431 cells (lysate, captured with SUMO1 anti-EGFR antibody)
Experiment: Biochemical EGFR Assay
Design: concentration or dose not given beside the values
Conditions: protocol P.167
In short: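 EGFR from A431 lysate was captured on anti-EGFR-coated wells and preincubated 30 min with compound (diluted 1:10 in TBS) at room temperature. After ATP/MnCl2 phosphorylation for 5 min, the reaction was stopped with EDTA. Phosphotyrosine was detected by ELISA (anti-phosphotyrosine, peroxidase conjugate, ABTS) at 410 nm.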

T1 sequence (P00533 25-1210): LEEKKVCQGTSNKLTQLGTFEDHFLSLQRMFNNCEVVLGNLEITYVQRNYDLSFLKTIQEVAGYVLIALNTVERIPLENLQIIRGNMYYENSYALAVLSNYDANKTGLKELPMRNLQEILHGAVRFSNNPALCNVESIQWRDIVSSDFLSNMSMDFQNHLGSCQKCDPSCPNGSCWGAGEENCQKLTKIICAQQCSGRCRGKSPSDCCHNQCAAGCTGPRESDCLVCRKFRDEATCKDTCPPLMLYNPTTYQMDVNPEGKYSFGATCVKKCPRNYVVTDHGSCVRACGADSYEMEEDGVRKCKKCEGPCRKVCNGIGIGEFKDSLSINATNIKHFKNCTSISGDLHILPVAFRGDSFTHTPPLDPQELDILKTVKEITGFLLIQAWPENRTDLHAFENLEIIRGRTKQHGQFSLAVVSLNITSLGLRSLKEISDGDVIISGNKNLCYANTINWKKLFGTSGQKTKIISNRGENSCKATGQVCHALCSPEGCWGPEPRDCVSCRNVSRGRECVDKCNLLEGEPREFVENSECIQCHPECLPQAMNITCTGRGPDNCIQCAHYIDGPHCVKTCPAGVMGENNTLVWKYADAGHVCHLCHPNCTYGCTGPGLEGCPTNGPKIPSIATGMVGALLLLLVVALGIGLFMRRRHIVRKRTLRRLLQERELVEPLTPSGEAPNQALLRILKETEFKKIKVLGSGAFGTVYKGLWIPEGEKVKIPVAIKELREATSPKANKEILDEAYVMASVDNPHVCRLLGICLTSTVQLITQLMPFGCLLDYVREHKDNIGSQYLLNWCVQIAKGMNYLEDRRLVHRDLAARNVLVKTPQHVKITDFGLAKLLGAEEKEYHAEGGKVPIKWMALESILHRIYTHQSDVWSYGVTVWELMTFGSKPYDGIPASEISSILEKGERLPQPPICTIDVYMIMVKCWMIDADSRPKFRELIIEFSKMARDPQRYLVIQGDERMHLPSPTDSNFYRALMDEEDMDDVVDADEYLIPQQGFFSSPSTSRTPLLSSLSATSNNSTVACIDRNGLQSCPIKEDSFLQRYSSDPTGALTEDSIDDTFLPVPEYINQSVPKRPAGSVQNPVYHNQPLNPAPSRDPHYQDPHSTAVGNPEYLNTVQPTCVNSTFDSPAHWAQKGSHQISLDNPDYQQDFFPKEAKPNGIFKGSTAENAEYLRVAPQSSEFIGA

Structure (SMILES) | Biochem EGFR % Inhibition (P.167) [%]
Cc1c(Br)ccc2c1C(=Cc1cccc(O)c1O)C(=O)N2 [10738/C06] | 28.7
COc1ccccc1C=C1C(=O)Nc2ccc(S(=O)(=O)N3CCOCC3)cc21 [10738/F09] | 0.1
O=C1Nc2c(Br)cc(Br)cc2C1=Cc1ccc(Cl)c(Cl)c1 [10738/A08] | 6.0
Cc1ccc(Oc2cccc(C=C3C(=O)Nc4ccc(S(=O)(=O)Nc5ccc(C(F)(F)F)cc5)cc43)c2)cc1 [10738/E02] | 56.1
CNS(=O)(=O)c1ccc2c(c1)C(=Cc1cc(O)cc(O)c1)C(=O)N2 [10738/D07] | −8.7
Cc1c(Br)cc(Br)c2c1C(=Cc1cccc(Oc3cccc(C(F)(F)F)c3)c1)C(=O)N2 [10737/H11] | 4.5
Cc1ccc(Oc2cccc(C=C3C(=O)Nc4c(Br)cc(Br)c(C)c43)c2)cc1 [10738/H02] | −52.0
O=C1Nc2ccc(I)cc2C1=Cc1cc(O)cc(O)c1 [10738/B07] | 28.7
CNS(=O)(=O)c1ccc2c(c1)C(=Cc1cccc(O)c1O)C(=O)N2 [10738/D06] | 32.4
COc1ccccc1C=C1C(=O)Nc2ccc(Br)c(C)c21 [10738/C09] | 31.9
COc1ccc(C=C2C(=O)Nc3ccc(CCCl)cc32)cc1O [10738/G04] | 12.1
